In assay [1] the target is T1, WT GlyT2 (Homo sapiens, UniProt Q9Y345).
T1 sequence (Q9Y345 1-797): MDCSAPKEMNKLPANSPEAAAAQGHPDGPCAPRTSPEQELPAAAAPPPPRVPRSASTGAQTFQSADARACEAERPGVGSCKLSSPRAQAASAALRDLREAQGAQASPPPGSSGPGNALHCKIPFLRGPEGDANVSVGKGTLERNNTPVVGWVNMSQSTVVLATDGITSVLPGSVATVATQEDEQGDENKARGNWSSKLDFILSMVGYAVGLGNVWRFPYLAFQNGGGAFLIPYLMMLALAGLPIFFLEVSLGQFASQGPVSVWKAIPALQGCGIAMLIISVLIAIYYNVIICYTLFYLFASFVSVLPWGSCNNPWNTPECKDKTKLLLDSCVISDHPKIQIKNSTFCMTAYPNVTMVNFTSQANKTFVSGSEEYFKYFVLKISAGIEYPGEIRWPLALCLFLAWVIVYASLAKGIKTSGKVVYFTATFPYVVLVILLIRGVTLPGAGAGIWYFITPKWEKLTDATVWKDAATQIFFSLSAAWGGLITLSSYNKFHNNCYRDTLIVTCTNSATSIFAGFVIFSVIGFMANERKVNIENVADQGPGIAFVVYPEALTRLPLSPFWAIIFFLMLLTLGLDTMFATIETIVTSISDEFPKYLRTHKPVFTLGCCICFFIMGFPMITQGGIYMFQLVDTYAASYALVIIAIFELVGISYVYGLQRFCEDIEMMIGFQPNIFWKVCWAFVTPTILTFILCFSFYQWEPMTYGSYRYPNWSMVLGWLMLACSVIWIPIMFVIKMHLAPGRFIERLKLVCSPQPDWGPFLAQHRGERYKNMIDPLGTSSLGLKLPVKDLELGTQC
Put plainly: Inhibitor concentration–responses on glycine transport currents, two-electrode voltage clamp (control and MβCD-treated oocytes). More on the design: expressed in transfected cells; host or cells: Xenopus laevis oocytes injected with in vitro transcribed RNA (pOTV vector). It is filed as cell-based. Particulars: for Reduction of potency after cholesterol depletion: MβCD-treated vs control oocytes. The method, then: (§1) Individual oocytes were incubated at 32°C for 30 min in 15 mM MβCD or γCD, suspended in frog Ringer’s solution.
Because of the slowly reversible nature of the compounds tested, inhibitor concentration–responses were performed cumulatively. An EC50 concentration of glycine was applied until a stable transport current was reached. EC50 concentrations of glycine were used to produce reliable currents for each transporter, and as the inhibitors are non-competitive, application of varying glycine concentrations is unlikely to affect their activity. Increasing concentrations of inhibitors were co-applied with glycine with each concentration producing a distinct plateau before the subsequent concentration was applied. Inhibitor concentration–responses were limited to a maximum concentration of 3 µM to mitigate the risk of changes to the free drug concentration because of micelle formation. Currents after the plateau of each inhibitor concentration were normalized to the current produced by application of glycine alone and fit using the method of least squares: Y=Bottom+(Top−Bottom)/(1+10^[X−LogIC50]), where X is log [inhibitor], Y is current normalized to glycine in the absence of inhibitor, and Top and Bottom are the maximal and minimal plateaus, respectively. The method of least squares was constrained to have the bottom value >0 and the hill slope as −1, enabling the calculation of IC50 values and the extent of inhibition produced by the maximal concentration applied.
IC50 values are presented as the mean and 95% confidence interval, whereas inhibition values are presented as the mean ± SEM. Data sets are n ≥ 5 from two batches of oocytes.
As the inhibitors assayed here are slowly reversible, inhibitor concentration–responses were unable to be performed on the same cell after treatment with MβCD. Thus, GlyT2 expression was tested by applying a maximal glycine concentration (300 µM) before treatment with MβCD to deplete membrane cholesterol. After MβCD treatment, oocytes were returned to the electrophysiology set-up and washed for 10 min in recording buffer to remove cyclodextrins. […] After successful depletion, inhibitor concentration–responses were performed as described above (see “Inhibitor concentration–response—mutagenesis” in the Materials and Methods section).
On the technique in general: In two-electrode clamp one electrode senses voltage and the other passes current.

The target of assay [2] is T1, WT GlyT2. Briefly: Inhibitor washout time course (reversibility), control and MβCD-treated oocytes. It is filed as cell-based. More on the design: expressed in transfected cells; host or cells: Xenopus laevis oocytes injected with in vitro transcribed RNA (pOTV vector). As to the method:
as §1
Reversibility of GlyT2 inhibitors was determined by applying an EC50 concentration of glycine followed by co-application of the inhibitor at an IC50 concentration once a stable current had been achieved. Inhibitors were applied for 4 min as this was sufficient time to produce substantial inhibition for each compound and allowed for their direct comparison. At the conclusion of 4 min (time 0), ND96 buffer was perfused through the recording chamber to wash the oocyte. […] Transport currents were normalized to glycine currents in the absence of inhibitor and converted to % recovery values via Y=It−It=0/Imax−It=0, where Y is % recovery, I is current in nA, Imax is the maximal current produced by the glycine EC50, and t is time in minutes. Washout kinetics were then determined by fitting % recovery values to the first-order rate equation: Y=(Y0−Plateau).e^(−Kt)+Plateau, where Y is the % recovery, Y0 is the point, which crosses the Y-axis (constrained to 0) and increases to the plateau (constrained to between 0 and 100), K is the rate constant (1/t), and t is time in minutes. […] Because of the slowly […] nature of the inhibitors, washout time courses involving cyclodextrin treatment could not be performed on the same cell. […] As these experiments could not occur on the same cell, differences in half-life and maximal recovery were analysed via an unpaired two-tailed t test.

Setting [3] is: MβCD-treated oocytes (15 mM, 30 min, 32 °C; cholesterol depleted).
Where [4] appears, read: WT GlyT2 in Xenopus laevis oocytes, glycine EC50 co-applied, Table S10.
The mark [5] stands for this setting: MβCD-treated oocytes (15 mM, 30 min, 32°C).
The mark [6] stands for this setting: MβCD-treated oocytes (15 mM, 30 min, 32 °C), 3 µM.
The mark [7] stands for this setting: WT GlyT2 in Xenopus laevis oocytes, 3 μM, Table S10.
Setting [8] is: WT, washout after 4 min IC50 concentration of inhibitor, Table S11.

A word on the Inhibition: it is how much of the control response was suppressed. As usually defined, the IC50 is the concentration that gives 50% inhibition. High values mean lower potency, low ones higher potency.

Regarding `CCCCCCCC/C=C\CCCCCCCC(=O)O[C@H](CC(=O)[O-])C[N+](C)(C)C` [Oleoyl-L-Carnitine, oleoyl-L-carnitine], the “Inhibition at 1 µM (column head 3 μM, footnote b)” value is listed as 60.5 ± 5.3^b % at WT GlyT2 [1] (MβCD-treated oocytes (15 mM, 30 min, 32 °C)) and 55.5 ± 5.2^b % at WT GlyT2 [1] (WT GlyT2 in Xenopus laevis oocytes, Table S10). The values for the IC50 on WT GlyT2 [1] (setting [3]) and on WT GlyT2 [1] (setting [4]) were 800 nM and 520 nM, respectively. Besides, the “Reduction of potency after cholesterol depletion” value (“Reduction of potency” for short) at WT GlyT2 [1] was “does not alter the potency”. The “Recovery at 30 min” value at WT GlyT2 [2] (Control oocytes, Table S8) turned out to be 45.7%; at WT GlyT2 [2] (setting [5]), 92.4%.
`CCCCCCCC/C=C\CCCCCCCC(=O)N[C@@H](CC(C)C)C(=O)O` [Oleoyl-L-Leucine, oleoyl-L-leucine]: the “Inhibition at 3 μM” value on WT GlyT2 [1] (setting [6]) is on record as 64.9 ± 3.8%; on WT GlyT2 [1] (setting [7]) it was 69.4 ± 3.8%. The figures for the IC50 against WT GlyT2 [1] (setting [3]) and against WT GlyT2 [1] (setting [4]) were 619 nM and 262 nM, respectively. In addition, the “Reduction of potency” value on WT GlyT2 [1] is listed as 2.4 fold. Also, the “Half-life (transport current recovery)” value on WT GlyT2 [2] (Control oocytes, Table S8) is 2.3 ± 0.5 min; at WT GlyT2 [2] (setting [5]), 3.1 ± 0.3 min; at WT GlyT2 [2] (MβCD-treated oocytes (15 mM, 30 min, 32°C), listed as OLLeu), “unchanged”; at WT GlyT2 [2] (setting [8]), 2.3 ± 0.5 min. For the same molecule, the “Recovery at 30 min” value at WT GlyT2 [2] (setting [5]) is given as 92.2 ± 3.7 %. The “Recovery at 30 Min” value at WT GlyT2 [2] (setting [8]) is recorded as 51.1 ± 2.7%.
On to `CCCCCCCC/C=C\CCCCCCCC(=O)N[C@@H](CCCCN)C(=O)O` [Oleoyl-L-Lysine, oleoyl-L-lysine], for which the “Inhibition at 3 μM” value on WT GlyT2 [1] (Control oocytes, 3 µM, Table S7) came to 93.6 ± 1.9%; at WT GlyT2 [1] (setting [6]), 91.5 ± 1.5%; on WT GlyT2 [1] (setting [7]) it was 86.6 ± 1.9%. Also, the IC50 on WT GlyT2 [1] (setting [3]) came out at 269 nM; against WT GlyT2 [1] (setting [4]), 215 nM; against WT GlyT2 [1] (WT GlyT2 in Xenopus laevis oocytes, glycine EC50 co-applied, Table S10, listed as OLLys) it was 220 nM. The “Reduction of potency” value at WT GlyT2 [1] turned out to be 2.3 fold. Further, the “Recovery at 30 min” value was 63.0 ± 4.1% at WT GlyT2 [2] (setting [5]) and “no difference was observed” on WT GlyT2 [2] (MβCD-treated oocytes (15 mM, 30 min, 32°C), listed as OLLys). Besides, on WT GlyT2 [2] (setting [8]), the “Recovery at 30 Min” value stood at 55.1 ± 1.5%.
For the molecule `CCCCCCCC/C=C\CCCCCCCC(=O)N[C@@H](Cc1c[nH]c2ccccc12)C(=O)O` [Oleoyl-L-Tryptophan, oleoyl-L-tryptophan], the “Inhibition at 3 μM” value at WT GlyT2 [1] (setting [6]) is 78 ± 4%; at WT GlyT2 [1] (setting [7]) it was 76.2 ± 2.3%. Moreover, the IC50 against WT GlyT2 [1] (setting [3]) worked out at 130 nM; against WT GlyT2 [1] (setting [4]), 103 nM. Moreover, the “Reduction of potency” value on WT GlyT2 [1] was “does not alter the potency”. Also, the “Half-life (transport current recovery)” value at WT GlyT2 [2] (Control oocytes, Table S8) is “No Recovery”; on WT GlyT2 [2] (setting [5]), “No Recovery”; on WT GlyT2 [2] (setting [8]) it was “No Recovery”. For the same molecule, the “Recovery at 30 min” value was “No Recovery” on WT GlyT2 [2] (Control oocytes, Table S8) and “No Recovery” on WT GlyT2 [2] (setting [5]). Further, the “Recovery at 30 Min” value on WT GlyT2 [2] (setting [8]) is “No Recovery”.

The values are drawn from publication PMC9873984, “Membrane cholesterol regulates inhibition and substrate transport by the glycine transporter, GlyT2” (Life Science Alliance, 2023).
